Values quoted from earlier work as cited in patent US10105355B2 (BASF SE, priority 2014, dated 2018).
Where two headings read alike, the source gives them in different places.

CS(=O)(=O)c1ccc(C(=O)Nc2ccc(Cl)c(-c3ccccn3)c2)c(Cl)c1 [Vismodegib, 2-Chloro-N-(4-chloro-3-pyridin-2-ylphenyl)-4-methylsulfonylbenzamide]
estimated elimination half-life (t½) (after a single dose treatment): 12 days | estimated elimination half-life (t½) (after continuous once-daily dosing): 4 days | exposure linearity (single doses higher than 270 mg): not linear
